# Source: ChEMBL document CHEMBL1201862, “PubChem BioAssay data set” (2004)
# Activity calls are given as the source filed them.
# Key:
# [1] = Luminescence Cell-Based Dose Response HTS to Identify Activators of Luciferase Translation or Activity in H4 […] Cells. [Related pubchem assays: 1829 (Project Summary), 1814 (Primary HTS)]; format: functional
# [2] = Luminescence Cell-Based Dose Response to Identify Activators of 5'UTR Stem-Loop Driven Prion Protein mRNA Translation in H4-C Neuroglioblastoma Cells. [Related pubchem assays: 1829 (Project Summary), 1814 (Primary HTS)]; format: functional
# H4 = experiment: Luminescence Cell-Based Dose Response HTS to Identify Activators of 5'UTR Stem-Loop Driven Prion Protein mRNA Translation in H4 Neuroglioblastoma Cells. [Related pubchem assays: 1829 (Project Summary), 1814 (Primary HTS)]; format: functional; details: Homo sapiens
# [3] = Luminescence Cell-Based Dose Confirmation HTS to Identify Activators of 5'UTR Stem-Loop Driven Alpha-Synuclein mRNA Translation in H4 Neuroglioblastoma Cells. [Related pubchem assays: 1829 (Project Summary), 1814 (Primary HTS)]; format: functional
# [4] = Luminescence Cell-Based Dose Response to Identify Activators of Luciferase Translation or Activity in H4-C Neuroglioblastoma Cells. [Related pubchem assays: 1829 (Project Summary), 1814 (Primary HTS)]; format: functional
# [5] = Luminescence Cell-Based Dose Confirmation to Identify Activators of 5'UTR Stem-Loop Driven Alpha-Synuclein mRNA Translation in H4 Neuroglioblastoma Cells. [Related pubchem assays: 1829 (Project Summary), 1814 (Primary HTS)]; format: functional
# [6] = IGROV1 ovarian cancer cell cytotoxicity, dose response, PAX8 inhibitor project, plate reader, dry powder samples (AID 743043); format: functional, cell-based; details: IGROV-1
# [7] = NIH:OVCAR-3 ovarian cancer cell cytotoxicity, dose response, PAX8 inhibitor project, plate reader, dry powder samples (AID 743044); format: functional, cell-based
# Paired box protein Pax-8 = Paired box protein Pax-8 (Homo sapiens, UniProt Q06710); experiment: inhibitors of PAX8-driven TPO luciferase reporter, dose response, RMG-I cells, cherry-pick (AID 687027); format: functional, cell-based;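 also: luciferase reporter driven by Pax8 target thyroperoxidase promoter measured by SteadyGlo luminescence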
# [8] = cytotoxicity in OVCAR8 ovarian cancer cells, dose response, PAX8 project, cell-based, plate reader, dry powder samples (AID 743197); format: functional; details: OVCAR-8
# [9] = IOSE-T80 ovarian epithelial cell cytotoxicity, dose response, cytotoxicity control for PAX8 inhibitor project, plate reader, dry powder samples (AID 743045); format: functional, cell-based
# [10] = inhibitors of PGC1a acetylation in cells, dose response, cell-based, cherry-picked samples (AID 720514); format: functional;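 also: potency may reflect raised or lowered acetylation signal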
# [11] = target: Heat shock protein HSP 90-alpha (Homo sapiens, UniProt P07900); experiment: Luminescence-based dose response biochemical high throughput screening assay for inhibitors of the Heat Shock Protein 90 (HSP90). [Related pubchem assays: 1831 (Summary AID.), 1846 (Confirmation screen.), 1789 (Primary screen.)]
# Estrogen receptor beta [12] = target: T1, Estrogen receptor beta (Homo sapiens, UniProt Q92731); experiment: ERβ–SRC-3 coactivator interaction inhibitors, confirmation, orthogonal assay, biochemical, ELISA, streptavidin-HRP readout (AID 1060)
# Estrogen receptor beta [13] = target: T1, Estrogen receptor beta
# [14] = target: T2, Sentrin-specific protease 6 (Homo sapiens, UniProt Q9GZR1); experiment: SAR Analysis of small molecule inhibitors of Sentrin-specific protease 6 (SENP6) using a Luminescent assay. [Related pubchem assays (depositor defined):AID2582, AID2599]; format: functional
# T2 sequence (Q9GZR1 whole entry): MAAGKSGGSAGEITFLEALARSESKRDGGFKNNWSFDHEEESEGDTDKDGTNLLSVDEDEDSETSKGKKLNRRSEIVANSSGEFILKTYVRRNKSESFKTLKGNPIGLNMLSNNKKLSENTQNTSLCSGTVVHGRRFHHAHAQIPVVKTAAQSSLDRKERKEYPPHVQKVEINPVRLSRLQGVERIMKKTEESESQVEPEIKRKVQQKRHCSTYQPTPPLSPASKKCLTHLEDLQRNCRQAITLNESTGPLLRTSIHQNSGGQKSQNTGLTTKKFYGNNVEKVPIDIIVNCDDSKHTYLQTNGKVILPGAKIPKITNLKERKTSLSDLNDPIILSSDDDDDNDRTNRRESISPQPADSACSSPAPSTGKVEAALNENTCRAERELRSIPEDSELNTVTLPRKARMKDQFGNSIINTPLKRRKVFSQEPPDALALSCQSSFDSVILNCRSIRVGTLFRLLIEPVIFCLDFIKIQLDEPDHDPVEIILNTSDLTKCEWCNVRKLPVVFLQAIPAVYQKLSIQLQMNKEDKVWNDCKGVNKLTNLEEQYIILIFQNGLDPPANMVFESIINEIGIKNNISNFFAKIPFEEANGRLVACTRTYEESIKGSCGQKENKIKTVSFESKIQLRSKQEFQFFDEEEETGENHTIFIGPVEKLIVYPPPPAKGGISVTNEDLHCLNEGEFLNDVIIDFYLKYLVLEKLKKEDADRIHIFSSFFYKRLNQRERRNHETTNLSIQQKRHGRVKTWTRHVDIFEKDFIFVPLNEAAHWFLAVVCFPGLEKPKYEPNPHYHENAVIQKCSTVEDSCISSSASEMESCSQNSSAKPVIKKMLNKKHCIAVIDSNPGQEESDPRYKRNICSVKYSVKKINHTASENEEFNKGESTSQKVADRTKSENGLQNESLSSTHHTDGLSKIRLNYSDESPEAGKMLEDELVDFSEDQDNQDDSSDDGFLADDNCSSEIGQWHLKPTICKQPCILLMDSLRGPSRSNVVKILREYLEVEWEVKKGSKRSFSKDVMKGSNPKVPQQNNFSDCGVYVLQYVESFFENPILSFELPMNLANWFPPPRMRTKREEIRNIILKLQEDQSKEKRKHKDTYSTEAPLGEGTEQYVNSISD
# [15] = target: T3, Sentrin-specific protease 7 (Homo sapiens, UniProt Q9BQF6); experiment: SENP7 protease inhibitors, SAR follow-up, biochemical, luminescence (AID 504497); format: functional
# T3 sequence (Q9BQF6 whole entry): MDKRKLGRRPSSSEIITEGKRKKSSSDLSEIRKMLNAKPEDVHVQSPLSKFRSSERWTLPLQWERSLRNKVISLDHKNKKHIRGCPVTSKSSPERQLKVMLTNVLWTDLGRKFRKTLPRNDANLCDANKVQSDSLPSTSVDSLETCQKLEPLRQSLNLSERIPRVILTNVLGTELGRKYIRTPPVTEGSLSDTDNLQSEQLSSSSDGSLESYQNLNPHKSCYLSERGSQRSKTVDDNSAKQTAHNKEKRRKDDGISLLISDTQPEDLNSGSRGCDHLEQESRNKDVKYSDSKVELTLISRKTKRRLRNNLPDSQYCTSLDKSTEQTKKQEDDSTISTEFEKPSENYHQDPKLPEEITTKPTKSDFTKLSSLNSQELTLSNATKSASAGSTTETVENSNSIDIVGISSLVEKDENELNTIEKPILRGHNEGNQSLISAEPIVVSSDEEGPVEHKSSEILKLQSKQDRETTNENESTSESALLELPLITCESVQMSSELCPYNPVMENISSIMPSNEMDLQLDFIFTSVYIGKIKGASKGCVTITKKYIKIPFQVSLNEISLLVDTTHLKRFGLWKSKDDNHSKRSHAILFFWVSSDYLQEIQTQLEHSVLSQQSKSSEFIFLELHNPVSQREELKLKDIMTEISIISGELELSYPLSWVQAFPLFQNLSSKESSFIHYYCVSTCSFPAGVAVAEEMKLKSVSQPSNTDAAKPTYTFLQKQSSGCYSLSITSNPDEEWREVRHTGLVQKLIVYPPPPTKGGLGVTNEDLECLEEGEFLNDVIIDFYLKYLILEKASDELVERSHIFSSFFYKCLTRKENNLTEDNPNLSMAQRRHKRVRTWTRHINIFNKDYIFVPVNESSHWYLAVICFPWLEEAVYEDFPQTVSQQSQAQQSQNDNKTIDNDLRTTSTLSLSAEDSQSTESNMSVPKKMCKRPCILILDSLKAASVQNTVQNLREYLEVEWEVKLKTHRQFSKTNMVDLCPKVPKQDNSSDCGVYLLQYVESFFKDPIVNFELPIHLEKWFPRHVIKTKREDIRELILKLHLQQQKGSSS
# [16] = target: T4, Sentrin-specific protease 8 (Homo sapiens, UniProt Q96LD8); experiment: SENP8 protease inhibitors, SAR follow-up, biochemical, luminescence (AID 504501); format: functional
# T4 sequence (Q96LD8 whole entry): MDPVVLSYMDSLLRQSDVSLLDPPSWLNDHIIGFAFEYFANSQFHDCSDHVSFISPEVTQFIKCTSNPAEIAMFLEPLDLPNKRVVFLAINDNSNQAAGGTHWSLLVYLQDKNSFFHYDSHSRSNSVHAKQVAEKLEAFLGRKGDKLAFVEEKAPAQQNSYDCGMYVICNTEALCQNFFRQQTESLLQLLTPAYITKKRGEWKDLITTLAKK
# Caspase-3 = target: T5, Caspase-3 (Homo sapiens, UniProt P42574); experiment: SAR Analysis of small molecule inhibitors of Sentrin-specific proteases (SENPs) using a Caspase-3 Selectivity assay. [Related pubchem assays (depositor defined):AID2540, AID2599, AID434973, AID489001]; format: functional
# T5 sequence (P42574 whole entry): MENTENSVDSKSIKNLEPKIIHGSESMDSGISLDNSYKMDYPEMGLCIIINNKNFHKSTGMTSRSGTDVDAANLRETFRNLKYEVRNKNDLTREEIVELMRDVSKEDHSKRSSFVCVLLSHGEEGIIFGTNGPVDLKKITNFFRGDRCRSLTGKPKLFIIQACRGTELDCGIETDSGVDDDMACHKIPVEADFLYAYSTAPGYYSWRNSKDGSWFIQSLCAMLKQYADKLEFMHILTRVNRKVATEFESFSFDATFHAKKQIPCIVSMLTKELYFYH
# [17] = Vero cell cytotoxicity, dose response, cytotoxicity control for Vif-APOBEC3G degradation inhibitor project, Vero cells (AID 1117358); format: functional; details: Human immunodeficiency virus 1, Vero
# [18] = Luminescent dose response cell-based high throughput screening assay for inhibitors of the Janus kinase 2 mutant JAK2V617F. [Related pubchem assays: 1446 (Primary screen.), 1521 (Confirmation assay.), 1486 (Counter screen.)]; format: functional
# Large T antigen = Large T antigen (Simian virus 40, UniProt P03070); format: functional, Betapolyomavirus macacae;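 also: Confirmatory-stage PubChem screen for compounds that inhibit SV40 T antigen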
# Protein Tat = target: T6, Protein Tat (Human immunodeficiency virus type 1 group M subtype B (isolate HXB2)(HIV-1), UniProt P04608); format: functional;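 also: tat binding to TAR RNA read out by fluorescence polarization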
# T6 sequence (P04608 whole entry): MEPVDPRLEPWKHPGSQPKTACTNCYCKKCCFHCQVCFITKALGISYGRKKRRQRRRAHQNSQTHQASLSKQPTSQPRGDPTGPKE
# [19] = cytotoxicity in HEK-293T cells, dose response, cytotoxicity control for BCR NF-kB inhibitor project, luminescence, B-cell screen hits (AID 489021); format: functional, cell-based;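 also: HEK-293T cells carrying an NF-kB luciferase reporter; cells exposed to compound for about 14 hours before viability readout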
# [20] = Luminescence-based dose response cell-based high throughput screening assay for cytotoxic compounds using the IEC-6 intestinal epithelial cell line. [Related pubchem assays: 1858 (Summary AID.), 1825 (Counterscreen.), 1907 (Confirmation screen.)]; format: functional
# T1 sequence (Q92731 whole entry): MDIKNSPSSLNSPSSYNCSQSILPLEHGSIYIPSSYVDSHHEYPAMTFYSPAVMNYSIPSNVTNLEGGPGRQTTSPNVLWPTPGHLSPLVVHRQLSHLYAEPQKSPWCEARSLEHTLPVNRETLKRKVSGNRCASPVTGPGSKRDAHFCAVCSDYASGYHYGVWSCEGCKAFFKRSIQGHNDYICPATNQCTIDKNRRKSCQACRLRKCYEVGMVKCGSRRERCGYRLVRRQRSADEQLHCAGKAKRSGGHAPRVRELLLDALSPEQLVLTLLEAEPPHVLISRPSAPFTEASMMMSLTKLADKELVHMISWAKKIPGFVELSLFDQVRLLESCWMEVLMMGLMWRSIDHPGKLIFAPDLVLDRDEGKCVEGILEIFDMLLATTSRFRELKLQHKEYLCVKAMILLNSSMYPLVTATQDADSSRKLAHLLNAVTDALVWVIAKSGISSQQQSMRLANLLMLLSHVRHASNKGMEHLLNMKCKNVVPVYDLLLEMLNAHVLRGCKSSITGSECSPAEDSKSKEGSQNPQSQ
# Sequence of Paired box protein Pax-8 (Q06710 whole entry): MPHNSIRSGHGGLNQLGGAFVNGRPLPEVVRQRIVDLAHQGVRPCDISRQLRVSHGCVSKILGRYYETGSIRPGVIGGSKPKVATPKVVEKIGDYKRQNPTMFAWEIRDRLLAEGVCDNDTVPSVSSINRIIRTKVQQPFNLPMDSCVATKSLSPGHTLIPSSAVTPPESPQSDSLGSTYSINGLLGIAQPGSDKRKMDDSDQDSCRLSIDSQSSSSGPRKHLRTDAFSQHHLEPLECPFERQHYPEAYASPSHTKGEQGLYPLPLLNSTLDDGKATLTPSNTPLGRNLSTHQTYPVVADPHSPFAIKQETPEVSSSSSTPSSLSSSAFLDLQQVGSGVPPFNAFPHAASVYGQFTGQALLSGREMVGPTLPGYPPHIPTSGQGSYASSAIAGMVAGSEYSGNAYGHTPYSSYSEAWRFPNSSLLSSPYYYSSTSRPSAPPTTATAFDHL
# Sequence of Large T antigen (P03070 whole entry): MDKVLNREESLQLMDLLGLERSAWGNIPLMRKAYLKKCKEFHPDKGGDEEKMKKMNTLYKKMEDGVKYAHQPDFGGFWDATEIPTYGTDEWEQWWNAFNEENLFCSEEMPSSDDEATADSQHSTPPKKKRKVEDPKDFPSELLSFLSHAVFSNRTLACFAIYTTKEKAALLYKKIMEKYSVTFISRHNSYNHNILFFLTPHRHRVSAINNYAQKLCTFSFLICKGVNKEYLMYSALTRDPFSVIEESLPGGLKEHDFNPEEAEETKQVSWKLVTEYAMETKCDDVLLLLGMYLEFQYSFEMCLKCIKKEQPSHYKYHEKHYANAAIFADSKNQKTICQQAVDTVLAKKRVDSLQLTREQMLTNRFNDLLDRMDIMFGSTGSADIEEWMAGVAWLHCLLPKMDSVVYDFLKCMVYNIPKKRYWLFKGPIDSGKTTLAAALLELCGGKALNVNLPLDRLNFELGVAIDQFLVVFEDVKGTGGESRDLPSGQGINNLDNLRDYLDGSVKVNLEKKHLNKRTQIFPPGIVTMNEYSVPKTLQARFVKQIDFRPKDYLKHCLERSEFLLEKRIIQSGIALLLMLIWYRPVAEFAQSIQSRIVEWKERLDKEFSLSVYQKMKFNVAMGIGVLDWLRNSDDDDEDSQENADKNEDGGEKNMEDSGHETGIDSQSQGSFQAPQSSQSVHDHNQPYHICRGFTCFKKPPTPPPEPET
structure (smiles),measurement,setting,value
COc1ccc(C(=O)Nc2cnc3ccccn3c2=O)cc1,EC50,[1],< 0.1 µM (active)
same,EC50,[2],0.755 µM (active)
same,EC50,H4,38.8 µM (active)
same,EC50,[3],0.129 µM (active)
same,EC50,[4],0.53 µM (active)
same,EC50,[5],0.36 µM (active)
O=C(Nc1ccc(C(F)(F)F)cc1)N1C[C@@H]2N[C@H](C1)[C@H]2c1ccc(-c2ccccc2)cc1,AC50,[6],27.2 µM (active)
same,AC50,[7],17.7 µM (active)
same,AC50,Paired box protein Pax-8,8.55 µM (active)
same,AC50,[8],41 µM (active)
same,AC50,[9],49.8 µM (active)
same,AC50,[10],5.12 µM (active)
COC(=O)c1ccccc1OCCCOc1ccc(C)cc1OC,IC50,[11],0.00405 µM (active)
Cc1cc(C(=O)Nc2sc3c(c2C#N)CCC3)no1,IC50,Estrogen receptor beta [12],< 0.023 µM (not active)
same,IC50,Estrogen receptor beta [13],11.5 µM (active)
same,IC50,[14],> 99 µM (inactive)
same,IC50,[15],52.7 µM (active)
same,IC50,[16],> 99 µM (inactive)
same,IC50,Caspase-3,30.4 µM (active)
CC(C)c1ccc(/C=C/C(=O)N2CCc3ccccc3C2)cc1,CC50,[17],> 40 µM (active)
Cc1noc(C)c1COC(=O)c1cccc(S(=O)(=O)N2CCCCCC2)c1,CC50,[17],> 40 µM (active)
Cc1occc1C(=O)NCCCc1ccccc1,IC50,Estrogen receptor beta [13],> 50 µM (not active)
Cc1ccc[n+](-c2[n-]c(=O)sc2C=NNC(=O)c2ccccc2O)c1,CC50,[17],> 40 µM (active)
C#CCSc1nsc(SCC#C)c1C#N,IC50,[18],1.1 µM (active)
O=S(=O)(c1cccs1)N1CCN(c2ccc(O)cc2)CC1,IC50,[18],2.84 µM (active)
same,IC50,Large T antigen,6.66 µM (active)
Cc1nn(Cc2ccccc2)c(Cl)c1C(=O)NCCc1ccccc1,EC50,[1],< 0.1 µM (active)
same,EC50,[2],1.07 µM (active)
same,EC50,[3],< 0.1 µM (active)
same,EC50,[4],0.367 µM (active)
same,EC50,[5],0.24 µM (active)
CC(C)(C)c1ccc(C(=O)CSc2nc[nH]n2)cc1,EC50,[1],88.1 µM (active)
same,EC50,[2],1.13 µM (active)
same,EC50,H4,0.127 µM (active)
same,EC50,[3],3.34 µM (active)
same,EC50,[4],1.09 µM (active)
same,EC50,[5],0.58 µM (active)
COc1ccc(OC)c(C2C(C(=O)Nc3ccc(F)cc3)=C(C)Nc3nc(CCCO)nn32)c1 (stereo unspecified),IC50,Protein Tat,> 100 µM (active)
Cc1ccc(Nc2nc(N3CCOCC3)nc(N3CCOCC3)n2)cc1C,IC50,[19],> 80 µM (inactive)
same,IC50,[20],1.47 µM (active)
C[C@@H]1CCCCO[C@H](CN(C)C(=O)NC2CCCCC2)[C@@H](C)CN([C@@H](C)CO)C(=O)c2cc(NC(=O)NC3CCCCC3)ccc2O1,AC50,[10],26 µM (active)
